# According to patent US6399654B1, “Biflavanoids and derivatives thereof as antiviral agents” (priority 1995, dated 2002):
# Read-outs that look alike come from different tables or passages of the source.
# Legend:
# [1] = system: Hepatitis B Virus (HBV); assay: HBV proteins and nucleic acids in 2.2.15 cells; type: cell-based; details: Day 9, 2.2.15 cells; robustaflavone @10 μM
# Protocol: Values of HBV proteins were determined by semi-quantitative EIA performed as previously described.^83 For the EIA analyses, test samples-were diluted (2- to 10-fold) so that the assay values produced were within the linear dynamic range of the EIA assays. Standard curves using serial dilutions of positive assay controls were included in each set of EIA analyses. HBV surface antigen ([…]), preSI protein, and HBc antigen ([…]) are released as extracellular products and were therefore analyzed in culture medium obtained 24 h following the last treatment dose of oligonucleotides or 2′, 3′-ddc. HBV core antigen (HBcAg) is an intracellular viral protein and was assayed in cell extracts produced by Triton-X-100 lysis.^83
# Cultures for HBV RNA were maintained on 6-well plates, cultures for HBV virion DNA analyses were maintained on either 96- or 24-well plates, and cultures for all other HBV parameters were maintained on 24-well plates.
# The concentrations of antiviral agents used in these studies approximates the EC50 values of the individual agents against intracellular HBV DNA replication intermediates (HBV RI). Cultures were treated with the indicated agents for 9 days using standard procedures. Values reported are the levels of the indicated HBV markers at the end of the treatment period (“DAY 9”) expressed as a percentage (±standard deviation (S.D.) of the average levels in the control cultures at the beginning of the treatment period (“DAY 0”). The method of expression permits an analysis of the variation of the HBV markers in the untreated (control) cultures over the course of the treatment period. HBV nucleic acid levels were measured by standard blot hydridization (dot, Southern, or Northern). HBV protein levels were measured by standard semi-quantitative EIA methods. Cultures for HBV RNA were maintained in 6-well culture plates. The levels of each of two major classes of HBV RNA transcripts are listed separately. Cultures for all other HBV markers were maintained in 24-well culture plates. For each treatment, a total of 4 separate cultures were used for the analysis of each HBV marker at both DAY 0 and DAY 9.
# Determination of Mechanism of Action. Measurements of intracellular and extracellular HBV DNA, 3.6 kb and 2.1 kb mRNA fragments, and HBsAg, HBeAg and HBcAg protein markers were conducted as previously described (93).
# [2] = system: HIV-1 (strain LAV-1); assay: microbe, parasite or virus in culture; type: cell-based
# [3] = system: Madin Darby canine kidney (MDCK) cells; details: Influenza A (H3N2) test
# [4] = Cytotoxicity by neutral red dye uptake, A549 cells; details: human
# [5] = system: Hepatitis B Virus (HBV); assay: Inhibition of HBV replication in 2.2.15 cells, extracellular (virion) HBV DNA; details: for EC90: 2.2.15 cells; for SI (CC50/EC90), HBV Virion: selective index;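 on all read-outs here: extracellular virion HBV DNA in culture medium measured by slot blot hybridization with a 32P-labeled HBV probe, quantified against HBV DNA standards, after 9 days of daily dosing, compared with day 0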
structure (smiles),measurement,setting,value
"O=c1cc(-c2ccc(O)c(-c3c(O)cc4oc(-c5ccc(O)cc5)cc(=O)c4c3O)c2)oc2cc(O)cc(O)c12 [Robustaflavone (3), robustaflavone]",Viral Antigens: HBeAg,[1],86 ± 6 % of Day 0 Control
same,Viral Antigens: HBsAg,[1],97 ± 6 % of Day 0 Control
same,Viral Antigens: HbcAG,[1],138 ± 8 % of Day 0 Control
same,Viral DNA: Extracellular DNA,[1],1 ± 1 % of Day 0 Control
same,Viral DNA: Intracellular DNA,[1],5 ± 1 % of Day 0 Control
same,Viral mRNA: 3.6 kb and 2.1 kb mRNA (first column),[1],93 ± 10 % of Day 0 Control
same,anti-HIV-1 activity in PBM cells (in words),[2],inactive
same,EC50,"[2]; Human immunodeficiency virus 1, PBMC, human PBM cells infected with HIV-1 (strain LAV), read-out: Ant-HIV-1 in PBM cells EC50",> 100000 nM
same,Selective Index (SI),[2]; PBM cells,<1
same,CPE Inhibition IC50 (cytotoxic),[3],˜32 ug/mL
same,IC50,[4],102 µg/mL
same,EC50,"[5]; Hepatitis B virus, read-out: EC50, concentration necessary to decrease HBV DNA levels by 50%, 2.2.15 cells, combinations: with respect to RF",250 nM
same,EC90,"[5]; read-out: EC90 (90% effective dose), HBV Virion, extracellular (virion) HBV DNA, 9 days treatment",2400 nM
same,EC90,"[5]; read-out: EC90 (90% effective dose), HBV Virion, extracellular (virion) HBV DNA, 9 days treatment, listed as Robustaflavone",2200 nM
same,EC90,"[5]; read-out: EC90, concentration necessary to decrease HBV DNA levels by 90%, combinations: with respect to RF",2200 nM
same,"SI (CC50/EC90), HBV Virion",[5],153
same,"SI (CC50/EC90), HBV Virion",[5]; listed as Robustaflavone,153
same,"SI (CC50/EC90), HBV Virion",[5]; listed as robustaflavone,153
